Data from patent US10357477B2, “Anticancer compounds” (REGENTS OF THE UNIVERSITY OF MINNESOTA, priority 2016, dated 2019).

System: MIA PaCa-2 cells
Assay: Cell viability assay (MTT) in MIA PaCa-2 cells
Assay type: cell-based
Settings: Homo sapiens, antiproliferative activity, 72 h
Protocol: MIA PaCa-2 cells (CRL-1420, ATCC) were maintained in DMEM media supplemented with 10% FBS, 2.5% HS, 1% GlutaMAX, 1% sodium pyruvate, 100 U/mL penicillin, and 100 μg/mL streptomycin. Cell culture media and additives were purchased from Gibco. Cells were plated in 96-well plates at |1−2.5|×10^4 cells per well in the DMEM growth media. One microliter of a 2-fold serially diluted compound solution in DMSO (Sigma) starting at 20 mM (100 μM final concentration) was added to each well. The final volume in each well was 200 μL, yielding a final DMSO concentration of 0.5%. Control wells contained 0.5% DMSO (100% viability) or 25% DMSO (background) and all reactions were done in triplicate. The plate was incubated for 72 h at 37° C. in a 5% CO2/95% air humidified atmosphere.
Measurement of cell viability was carried out using a modified method of Mosmann based on 3-(4,5-dimethylthiazol-2-yl)-2,5-diphenyltetrazolium bromide (MTT, Sigma). MTT solution was prepared fresh at 1 mg/mL in serum-free and phenol red-free RPMI 1640 media. After 200 μL of MTT solution was added to each well, the plate was incubated as described above for 3 h. The MTT solution was removed, and the formazan crystals were solubilized with 200 μL of isopropanol. The plate was read on a SpectraMax i3 spectrophotometer (Molecular Devices) at 570 nm for formazan and 650 nm for background subtraction. EC50 values were calculated by fitting the data in GraphPad Prism software. EC50 values were determined in triplicate.

| Structure (SMILES) | EC50 [µM] |
| --- | --- |
| Cc1nn(Cc2cccc(C(=O)Nc3ccccc3)c2)c(C)c1NC(=O)c1ccc(COc2ccccc2)cc1 [Compound A4d, 3-((3,5-Dimethyl-4-(4-(phenoxymethyl)benzamido)-1H-pyrazol-1-yl)methyl)-N-phenylbenzamide] | 6.4 |
| CNC(=O)c1cccc(Cn2nc(C)c(N(C)C(=O)c3ccc(COc4ccccc4)cc3)c2C)c1 [Compound B1, N-(3,5-Dimethyl-1-(3-(methylcarbamoyl)benzyl)-1H-pyrazol-4-yl)-N-methyl-4-(phenoxymethyl)benzamide] | 17 |
| CNC(=O)c1cccc(Cn2nc(C)c(NCc3ccc(COc4ccccc4)cc3)c2C)c1 [Compound B2, 3-((3,5-Dimethyl-4-((4-(phenoxymethyl)benzyl)amino)-1H-pyrazol-1-yl)methyl)-N-methylbenzamide] | 6.1 |
| CNC(=O)c1cccc(Cn2nc(C)c(NS(=O)(=O)c3ccc(COc4ccccc4)cc3)c2C)c1 [Compound B3, 3-((3,5-Dimethyl-4-((4-(phenoxymethyl)phenyl)sulfonamido)-1H-pyrazol-1-yl)methyl)-N-methylbenzamide] | 25 |
| CNC(=O)c1cccc(Cn2nc(C)c(NC(=O)c3ccc(CSc4ccccc4)cc3)c2C)c1 [Compound C1, 3-((3,5-Dimethyl-4-(4-((phenylthio)methyl)benzamido)-1H-pyrazol-1-yl)methyl)-N-methylbenzamide] | 8.3 |
| CNC(=O)c1cccc(Cn2nc(C)c(NC(=O)c3ccc(CNc4ccccc4)cc3)c2C)c1 [Compound C2, 3-((3,5-Dimethyl-4-(4-((phenylamino)methyl)benzamido)-1H-pyrazol-1-yl)methyl)-N-methylbenzamide] | 17 |
| CNC(=O)c1cccc(Cn2nc(C)c(NC(=O)c3cccc(COc4ccccc4)c3)c2C)c1 [Compound C6, N-(3,5-Dimethyl-1-(3-(methylcarbamoyl)benzyl)-1H-pyrazol-4-yl)-3-(phenoxymethyl)benzamide] | 32 |
| CNC(=O)c1cccc(Cn2nc(C)c(NC(=O)c3ccc(COC4CCCCC4)cc3)c2C)c1 [Compound C7, 3-((4-(4-((Cyclohexyloxy)methyl)benzamido)-3,5-dimethyl-1H-pyrazol-1-yl)methyl)-N-methylbenzamide] | 14 |
| CNC(=O)c1cccc(Cn2nc(C)c(NC(=O)c3ccc(COc4ccc5ccccc5c4)cc3)c2C)c1 [Compound D1, 3-((3,5-Dimethyl-4-(4-((naphthalen-2-yloxy)methyl)benzamido)-1H-pyrazol-1-yl)methyl)-N-methylbenzamide] | 9.1 |
| CNC(=O)c1cccc(Cn2nc(C)c(NC(=O)c3ccc(COc4cccc(C#N)c4)cc3)c2C)c1 [Compound D7b, 3-((4-(4-((3-Cyanophenoxy)methyl)benzamido)-3,5-dimethyl-1H-pyrazol-1-yl)methyl)-N-methylbenzamide] | 10 |
| CNC(=O)c1cccc(Cn2nc(C)c(NC(=O)c3ccc(COc4ccccc4[N+](=O)[O-])cc3)c2C)c1 [Compound D8a, 3-((3,5-Dimethyl-4-(4-((2-nitrophenoxy)methyl)benzamido)-1H-pyrazol-1-yl)methyl)-N-methylbenzamide] | 11 |
| CNC(=O)c1cccc(Cn2nc(C)c(NC(=O)c3ccc(COc4cccc([N+](=O)[O-])c4)cc3)c2C)c1 [Compound D8b, 3-((3,5-Dimethyl-4-(4-((3-nitrophenoxy)methyl)benzamido)-1H-pyrazol-1-yl)methyl)-N-methylbenzamide] | 10 |
| CNC(=O)c1cccc(Cn2nc(C)c(NC(=O)c3ccc(COc4ccc([N+](=O)[O-])cc4)cc3)c2C)c1 [Compound D8c, 3-((3,5-Dimethyl-4-(4-((4-nitrophenoxy)methyl)benzamido)-1H-pyrazol-1-yl)methyl)-N-methylbenzamide] | 9.7 |
| CNC(=O)c1cccc(Cn2nc(C)c(NC(=O)c3ccc(COc4ccc(C(F)(F)F)cc4C)nc3)c2C)c1 [Compound E5a, N-(3,5-Dimethyl-1-(3-(methylcarbamoyl)benzyl)-1H-pyrazol-4-yl)-6-((2-methyl-4-(trifluoromethyl)phenoxy)methyl)nicotinamide] | 6.7 |
| CNC(=O)c1cc(Cn2nc(C)c(NC(=O)c3ccc(COc4ccc(C(F)(F)F)cc4C)nc3)c2C)ccn1 [Compound E5b, 4-((3,5-Dimethyl-4-(6-((2-methyl-4-(trifluoromethyl)phenoxy)methyl)nicotinamido)-1H-pyrazol-1-yl)methyl)-N-methylpicolinamide] | 9.4 |
| CNC(=O)c1cccc(Cn2nc(C)c(NC(=O)c3ccc(Oc4ccccc4)cc3)c2C)c1 [Compound E6a, 3-((3,5-Dimethyl-4-(4-phenoxybenzamido)-1H-pyrazol-1-yl)methyl)-N-methylbenzamide] | 8.4 |
| CNC(=O)c1cccc(Cn2nc(C)c(NC(=O)c3ccc(Oc4ccc(C(F)(F)F)cc4)cc3)c2C)c1 [Compound E6b, 3-((3,5-Dimethyl-4-(4-(4-(trifluoromethyl)phenoxy)-benzamido)-1H-pyrazol-1-yl)methyl)-N-methylbenzamide] | 4.6 |
| CNC(=O)c1cccc(Cn2nc(C)c(NC(=O)c3ccc(Oc4ccc(C(F)(F)F)cc4C)cc3)c2C)c1 [Compound E6c, 3-((3,5-Dimethyl-4-(4-(2-methyl-4-(trifluoromethyl)phenoxy)benzamido)-1H-pyrazol-1-yl)methyl)-N-methylbenzamide] | 1.2 |
| CNC(=O)c1cc(Cn2nc(C)c(NC(=O)c3ccc(Oc4ccc(C(F)(F)F)cc4)cc3)c2C)ccn1 [Compound E7a, 4-((3,5-Dimethyl-4-(4-(4-(trifluoromethyl)phenoxy)-benzamido)-1H-pyrazol-1-yl)methyl)-N-methylpicolinamide] | 8.1 |
| CNC(=O)c1cc(Cn2nc(C)c(NC(=O)c3ccc(Oc4ccc(C(F)(F)F)cc4C)cc3)c2C)ccn1 [Compound E7b, 4-((3,5-Dimethyl-4-(4-(2-methyl-4-(trifluoromethyl)phenoxy)-benzamido)-1H-pyrazol-1-yl)methyl)-N-methylpicolinamide] | 10 |
| CNC(=O)c1cccc(Cn2nc(C)c(NC(=O)c3ccc(C(C)Oc4ccccc4)cc3)c2C)c1 (stereo not shown) [Compound F1, 3-((3,5-Dimethyl-4-(4-(1-phenoxyethyl)benzamido)-1H-pyrazol-1-yl)methyl)-N-methylbenzamide] | 22 |
| CNC(=O)c1cccc(C(C)n2nc(C)c(NC(=O)c3ccc(COc4ccccc4)cc3)c2C)c1 (stereo not shown) [Compound F2, 3-(1-(3,5-Dimethyl-4-(4-(phenoxymethyl)benzamido)-1H-pyrazol-1-yl)ethyl)-N-methylbenzamide] | 7.7 |
| CNC(=O)c1cccc(C(C)n2nc(C)c(NC(=O)c3ccc(COc4ccc(C(F)(F)F)cc4C)cc3)c2C)c1 (stereo not shown) [Compound F3, 3-(1-(3,5-Dimethyl-4-(4-((2-methyl-4-(trifluoromethyl)phenoxy)methyl)benzamido)-1H-pyrazol-1-yl)ethyl)-N-methylbenzamide] | 2.4 |
| CNC(=O)c1cc(C(C)n2nc(C)c(NC(=O)c3ccc(COc4ccc(C(F)(F)F)cc4C)cc3)c2C)ccn1 (stereo not shown) [Compound F4, 4-(1-(3,5-Dimethyl-4-(4-((2-methyl-4-(trifluoromethyl)phenoxy)methyl)benzamido)-1H-pyrazol-1-yl)ethyl)-N-methylpicolinamide] | 4 |
| CNC(=O)c1cccc(Cn2nc(C)c(NC(=O)c3ccc(COc4ccccn4)cc3)c2C)c1 [Compound G1, 3-((3,5-Dimethyl-4-(4-((pyridin-2-yloxy)methyl)benzamido)-1H-pyrazol-1-yl)methyl)-N-methylbenzamide] | > 100 |
